Laboratory results: patent publication US9181253B2 (The United States of America, as represented by the …, priority 2008, dated 2015)

Key:
hA1AR [1] = molecular target: T1, hA1AR (Homo sapiens (Human), UniProt P30542); test: Radioligand membrane binding at hA1AR (Example 6); conditions: for Ki: CHO cells expressing hA1AR, [3H]R-PIA, n = 3-5, read-out: Affinity Ki, nM A1; for inhibition at 10 µM: read-out: (% inhibition) A1; for (% inhibition) A1: percent inhibition of radioligand binding at 10 μM
T1 sequence (P30542 whole entry): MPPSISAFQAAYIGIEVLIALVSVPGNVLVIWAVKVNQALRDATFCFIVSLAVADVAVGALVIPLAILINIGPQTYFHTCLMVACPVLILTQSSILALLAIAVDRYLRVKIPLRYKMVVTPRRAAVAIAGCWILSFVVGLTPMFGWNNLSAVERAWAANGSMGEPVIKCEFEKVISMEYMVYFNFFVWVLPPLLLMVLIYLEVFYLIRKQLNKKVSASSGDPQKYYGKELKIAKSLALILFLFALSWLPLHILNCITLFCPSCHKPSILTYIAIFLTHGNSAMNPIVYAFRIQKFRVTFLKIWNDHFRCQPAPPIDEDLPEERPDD
Experimental: (§1) In addition, 800 μg/mL Geneticin and 500 μg/mL hygromycin were added to the A2A media and to the A1 and A3 media, respectively. […] The concentration of protein was determined using a BCA Protein Assay Kit from Pierce Biotechnology (Rockford, Ill.).
(§2) Radioligand binding assays at A1, A2A, and A3ARs were performed according to the procedures described previously.
(§3) All of the filters were washed 3 times with Tris-HCl, pH 7.5. […] Filters for A3AR binding were counted using a PerkinElmer Cobra II γ-counter.
(§4) Binding and functional parameters were calculated using Prism 5.0 software (GraphPAD, San Diego, Calif., USA). IC50 values obtained from competition curves were converted to Ki values using the Cheng-Prusoff equation. Data were expressed as mean±standard error.

hA2AAR = hA2AAR (Homo sapiens (Human), UniProt P29274); test: Radioligand membrane binding at hA2AAR (Example 6); conditions: for Ki: HEK293 cells expressing hA2AAR, [3H]CGS21680, n = 3-5, read-out: Affinity Ki, nM A2A; for (% inhibition) A2A: percent inhibition of radioligand binding at 10 μM; for inhibition at 10 µM: read-out: (% inhibition) A2A
Sequence of hA2AAR (P29274 whole entry): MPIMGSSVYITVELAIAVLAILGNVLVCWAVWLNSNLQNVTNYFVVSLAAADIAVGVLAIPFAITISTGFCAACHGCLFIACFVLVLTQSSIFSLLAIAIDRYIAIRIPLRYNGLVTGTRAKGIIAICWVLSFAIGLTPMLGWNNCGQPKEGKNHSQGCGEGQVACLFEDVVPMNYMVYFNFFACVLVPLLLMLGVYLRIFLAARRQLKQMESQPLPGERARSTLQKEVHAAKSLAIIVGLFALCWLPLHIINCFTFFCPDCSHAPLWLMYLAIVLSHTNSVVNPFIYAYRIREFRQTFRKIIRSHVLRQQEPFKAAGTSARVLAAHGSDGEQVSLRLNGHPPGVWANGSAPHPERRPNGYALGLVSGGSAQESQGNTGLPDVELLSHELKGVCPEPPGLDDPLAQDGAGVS
Experimental: as §1, §2, §3, §4

hA3AR = hA3AR (Homo sapiens (Human), UniProt P0DMS8); test: Radioligand membrane binding at hA3AR (Example 6); conditions: for Ki: CHO cells expressing hA3AR, [125I]I-AB-MECA, n = 3-5, read-out: Affinity Ki, nM A3
Sequence of hA3AR (P0DMS8 whole entry): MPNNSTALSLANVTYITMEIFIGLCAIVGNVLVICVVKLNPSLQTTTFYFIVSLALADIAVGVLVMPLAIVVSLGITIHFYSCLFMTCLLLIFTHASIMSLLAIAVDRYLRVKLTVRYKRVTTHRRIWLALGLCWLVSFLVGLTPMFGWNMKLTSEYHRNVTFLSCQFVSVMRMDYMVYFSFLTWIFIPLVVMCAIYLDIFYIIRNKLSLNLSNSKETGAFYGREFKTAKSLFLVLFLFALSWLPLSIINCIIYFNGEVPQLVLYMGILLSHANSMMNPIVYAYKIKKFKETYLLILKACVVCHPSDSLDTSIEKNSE

hA1AR [2] = molecular target: T1, hA1AR; test: A1AR functional assay, inhibition of forskolin-stimulated cyclic AMP production in AR-transfected CHO cells; assay type: cell-based; conditions: for inhibition at 10 µM: CHO, read-out: % Inhibition, cyclic AMP A1; for % Inhibition, cyclic AMP A1: maximal efficacy at 10 μM, in comparison to effect (100%) of full agonist CPA at 10 μM, n = 3-5

Row | Ki (hA1AR [1]) | Ki (hA2AAR) | Ki (hA3AR) | inhibition at 10 µM (hA1AR [2]) | Compound | other results
1 | 350 ± 90 nM | 3140 ± 450 nM | 160 ± 42 nM | 68.1 ± 4.4% | Nc1nc(Cl)nc2c1ncn2[C@H]1[C@H](O)[C@H](O)[C@@H]2C[C@@H]21 [Compound 107, (1R,2R,3S,4R,5S)-4-(6-Amino-2-chloro-9H-purin-9-yl)-bicyclo[3.1.0]hexane-2,3-diol] | 
2 | 210 ± 30 nM | 3700 ± 340 nM | 12.1 ± 3.4 nM | 79 ± 18.8% | O[C@@H]1[C@H](O)[C@@H]2C[C@@H]2[C@H]1n1cnc2c(NC3CC3)nc(Cl)nc21 [Compound 108, (1R,2R,3S,4R,5S)-4-(2-Chloro-6-(cyclopropylamino)-9H-purin-9-yl)bicyclo[3.1.0]hexane-2,3-diol] | 
3 | 51.6 ± 12.6 nM | 3020 ± 90 nM | 5.9 ± 0.5 nM |  | O[C@@H]1[C@H](O)[C@@H]2C[C@@H]2[C@H]1n1cnc2c(NC3CCC3)nc(Cl)nc21 [Compound 109, (1R,2R,3S,4R,5S)-4-(2-Chloro-6-(cyclobutylamino)-9H-purin-9-yl)bicyclo[3.1.0]hexane-2,3-diol] | 
4 | 140 ± 10 nM | 2720 ± 450 nM | 500 ± 120 nM | 38 ± 17.6% | O[C@@H]1[C@H](O)[C@@H]2C[C@@H]2[C@H]1n1cnc2c(NC3CCCCC3)nc(Cl)nc21 [Compound 110, (1R,2R,3S,4R,5S)-4-(2-Chloro-6-(cyclohexylamino)-9H-purin-9-yl)bicyclo[3.1.0]hexane-2,3-diol] | 
5 | 230 ± 30 nM | 3930 ± 520 nM | 560 ± 90 nM | 48.1 ± 10.2% | O[C@@H]1[C@H](O)[C@@H]2C[C@@H]2[C@H]1n1cnc2c(NC3CCCCCC3)nc(Cl)nc21 [Compound 111, (1R,2R,3S,4R,5S)-4-(2-Chloro-6-(cycloheptylamino)-9H-purin-9-yl)bicyclo[3.1.0]hexane-2,3-diol] | 
6 | 760 ± 110 nM |  | 1530 ± 60 nM | 40.1 ± 9% | O[C@@H]1[C@H](O)[C@@H]2C[C@@H]2[C@H]1n1cnc2c(NC3CCCCCCC3)nc(Cl)nc21 [Compound 112, (1R,2R,3S,4R,5S)-4-(2-Chloro-6-(cyclooctylamino)-9H-purin-9-yl)bicyclo[3.1.0]hexane-2,3-diol] | 
7 | 930 ± 110 nM |  | 6.6 ± 1.6 nM |  | CCNc1nc(Cl)nc2c1ncn2[C@H]1[C@H](O)[C@H](O)[C@@H]2C[C@@H]21 [Compound 115, (1R,2R,3S,4R,5S)-4-(2-Chloro-6-(ethylamino)-9H-purin-9-yl)bicyclo[3.1.0]hexane-2,3-diol] | (% inhibition) A2A (hA2AAR): (11%)
8 | 72.7 ± 28 nM |  | 32.4 ± 6.7 nM | 23.2 ± 2.6% | O[C@@H]1[C@H](O)[C@@H]2C[C@@H]2[C@H]1n1cnc2c(NCCCF)nc(Cl)nc21 [Compound 116, (1R,2R,3S,4R,5S)-4-(2-Chloro-6-(3-fluoropropylamino)-9H-purin-9-yl)bicyclo[3.1.0]hexane-2,3-diol] | 
9 | 72.2 ± 16.4 nM |  | 12 ± 1 nM | 50.5 ± 6.4% | CC(C)Nc1nc(Cl)nc2c1ncn2[C@H]1[C@H](O)[C@H](O)[C@@H]2C[C@@H]21 [Compound 117, (1R,2R,3S,4R,5S)-4-(2-Chloro-6-(isopropylamino)-9H-purin-9-yl)bicyclo[3.1.0]hexane-2,3-diol] | (% inhibition) A2A (hA2AAR): (39%)
10 | 78.8 ± 15.6 nM | 3700 ± 300 nM | 52 ± 14 nM | 28.6 ± 3.8% | CCC(CC)Nc1nc(Cl)nc2c1ncn2[C@H]1[C@H](O)[C@H](O)[C@@H]2C[C@@H]21 [Compound 118, (1R,2R,3S,4R,5S)-4-(2-Chloro-6-(pentan-3-ylamino)-9H-purin-9-yl)bicyclo[3.1.0]hexane-2,3-diol] | 
11 | 68.4 ± 8.9 nM | 4410 ± 1090 nM | 8.9 ± 1.9 nM | 81 ± 21.1% | O[C@@H]1[C@H](O)[C@@H]2C[C@@H]2[C@H]1n1cnc2c(NCC3CC3)nc(Cl)nc21 [Compound 119, (1R,2R,3S,4R,5S)-4-(2-Chloro-6-(cyclopropylmethylamino)-9H-purin-9-yl)bicyclo[3.1.0]hexane-2,3-diol] | 
12 | 86.8 ± 23.7 nM |  | 110 ± 17 nM |  | CC(Nc1nc(Cl)nc2c1ncn2[C@H]1[C@H](O)[C@H](O)[C@@H]2C[C@@H]21)C1CC1 (stereo partly drawn) [Compound 120, (1R,2R,3S,4R,5S)-4-(2-Chloro-6-(1-cyclopropylethylamino)-9H-purin-9-yl)bicyclo[3.1.0]hexane-2,3-diol] | (% inhibition) A2A (hA2AAR): (41%)
13 | 4790 ± 670 nM |  | 41.5 ± 1 nM |  | O[C@@H]1[C@H](O)[C@@H]2C[C@@H]2[C@H]1n1cnc2c(NCc3ccccc3F)nc(Cl)nc21 [Compound 122, (1R,2R,3S,4R,5S)-4-(2-Chloro-6-(2-fluorobenzylamino)-9H-purin-9-yl)bicyclo[3.1.0]hexane-2,3-diol] | 
14 |  |  | 10.3 ± 1.5 nM |  | O[C@@H]1[C@H](O)[C@@H]2C[C@@H]2[C@H]1n1cnc2c(NCc3ccccc3OCCF)nc(Cl)nc21 [Compound 123, (1R,2R,3S,4R,5S)-4-(2-chloro-6-(2-(2-fluoroethoxy)benzylamino)-9H-purin-9-yl)bicyclo[3.1.0]hexane-2,3-diol] | 
15 |  |  | 15.2 ± 3 nM |  | O[C@@H]1[C@H](O)[C@@H]2C[C@@H]2[C@H]1n1cnc2c(NCc3cccc(OCCF)c3)nc(Cl)nc21 [Compound 124, (1R,2R,3S,4R,5S)-4-(2-chloro-6-(3-(2-fluoroethoxy)benzylamino)-9H-purin-9-yl)bicyclo[3.1.0]hexane-2,3-diol] | inhibition at 10 µM (hA1AR [1]): 34%; inhibition at 10 µM (hA2AAR): 32%
16 | 3580 ± 220 nM |  | 114 ± 45 nM |  | O[C@@H]1[C@H](O)[C@@H]2C[C@@H]2[C@H]1n1cnc2c(NCc3cc(F)ccc3F)nc(Cl)nc21 [Compound 125, (1R,2R,3S,4R,5S)-4-(2-chloro-6-(2,5-difluorobenzylamino)-9H-purin-9-yl)bicyclo[3.1.0]hexane-2,3-diol] | inhibition at 10 µM (hA2AAR): 46%
17 | 1260 ± 240 nM |  | 16.5 ± 2.8 nM |  | COc1ccc(F)c(F)c1CNc1nc(Cl)nc2c1ncn2[C@H]1[C@H](O)[C@H](O)[C@@H]2C[C@@H]21 [Compound 126, (1R,2R,3S,4R,5S)-4-(2-chloro-6-(2,3-difluoro-6-methoxybenzylamino)-9H-purin-9-yl)bicyclo[3.1.0]hexane-2,3-diol] | inhibition at 10 µM (hA2AAR): 38%
18 |  |  | 83.2 ± 35.7 nM |  | COc1cc(F)c(F)cc1CNc1nc(Cl)nc2c1ncn2[C@H]1[C@H](O)[C@H](O)[C@@H]2C[C@@H]21 [Compound 127, (1R,2R,3S,4R,5S)-4-(2-chloro-6-(4,5-difluoro-2-methoxybenzylamino)-9H-purin-9-yl)bicyclo[3.1.0]hexane-2,3-diol] | inhibition at 10 µM (hA1AR [1]): 41%; inhibition at 10 µM (hA2AAR): 30%
19 | 1910 ± 310 nM | 7510 ± 690 nM | 40.4 ± 13.1 nM |  | OCc1cc(F)c(F)cc1CNc1nc(Cl)nc2c1ncn2[C@@]12C[C@H](O)[C@H](O)[C@@H]1C2 [Compound 128] | 
20 | 780 ± 100 nM |  | 670 ± 10 nM | -9 ± 4.1% | O[C@@H]1[C@H](O)[C@@H]2C[C@@H]2[C@H]1n1cnc2c(NCC(C3CC3)C3CC3)nc(Cl)nc21 [Compound 207, (1R,2R,3S,4R,5S)-4-(2-Chloro-6-(2,2-dicyclopropylethylamino)-9H-purin-9-yl)bicyclo[3.1.0]hexane-2,3-diol] | 
21 |  |  |  |  | O[C@@H]1[C@H](O)[C@@H]2C[C@@H]2[C@H]1n1cnc2c(NC(C3CCCC3)C3CCCC3)nc(Cl)nc21 [Compound 211, (1R,2R,3S,4R,55)-4-(2-Chloro-6-(dicyclopentylmethylamino)-9H-purin-9-yl)bicyclo[3.1.0]hexane-2,3-diol] | (% inhibition) A1 (hA1AR [1]): (34 ± 3%); (% inhibition) A2A (hA2AAR): (13 ± 3%); (% inhibition) A3 (hA3AR; percent inhibition of radioligand binding at 10 μM): (48 ± 2%)
22 | 3000 ± 440 nM |  |  |  | O[C@@H]1[C@H](O)[C@@H]2C[C@@H]2[C@H]1n1cnc2c(N[C@@H](c3ccccc3)C3CC3)nc(Cl)nc21 [Compound 220, (1R,2R,3S,4R,5S)-4-(2-Chloro-6-((R)-cyclopropylphenylmethylamino)-9H-purin-9-yl)bicyclo[3.1.0]hexane-2,3-diol] | (% inhibition) A2A (hA2AAR): (46 ± 4%); % Inhibition, cyclic AMP A1 (hA1AR [2]): −7.4 ± 6.0%
23 |  |  |  |  | O[C@@H]1[C@H](O)[C@@H]2C[C@@H]2[C@H]1n1cnc2c(N[C@H](c3ccccc3)C3CC3)nc(Cl)nc21 [Compound 221, (1R,2R,3S,4R,5S)-4-(2-Chloro-6-((S)-cyclopropylphenylmethylamino)-9H-purin-9-yl)bicyclo[3.1.0]hexane-2,3-diol] | (% inhibition) A1 (hA1AR [1]): (50 ± 5%); (% inhibition) A2A (hA2AAR): (36 ± 4%); % Inhibition, cyclic AMP A1 (hA1AR [2]): −2.4 ± 3.7%
24 |  |  |  |  | OC[C@H]1O[C@@H](n2cnc3c(NC4CCCC4)ncnc32)[C@H](O)[C@@H]1O [Compound 235a, N^6-cyclopentyladenosine, reference compound] | % Inhibition, cyclic AMP A1 (hA1AR [2]): 100 ± 2.6%

Row | Compound | Ki (hA1AR [1]) | Ki (hA2AAR) | Ki (hA3AR) | inhibition at 10 µM (hA1AR [2]) | other results
25 | CC[C@@H](Nc1nc(Cl)nc2c1ncn2[C@H]1[C@H](O)[C@H](O)[C@@H]2C[C@@H]21)C1CC1 [Compound 212, (1R,2R,3S,4R,5S)-4-(2-Chloro-6-((R)-1-cyclopropylpropylamino)-9H-purin-9-yl)bicyclo[3.1.0]hexane-2,3-diol] | 68.1 ± 5 nM | 3610 ± 500 nM | 150 ± 2 nM | 37.3 ± 4.3% | 
